Laboratory results from US20090062273A1, “3-H-pyrazolopyridines and salts thereof, pharmaceutical compositions comprising same, methods of preparing same and uses of same” (priority 2006, published 2009).

target: Tie2 (Homo sapiens, UniProt Q02763); experiment: Tie2 ELISA assay (cellular Tie2 autophosphorylation); format: cell-based; parameters: expressed in transfected cells; host or cells: CHO (CHO Tie2/DHFR); conditions: CHO cells stably transfected with Tie2, stimulated by angiopoietin-2; Tie2 autophosphorylation by sandwich-ELISA; read-out: Tie 2 activity (assay 1)
Experimental: Cellular activity of compounds of the present invention as inhibitors of Tie2 kinase activity was measured employing a Tie2 ELISA assay as described in the following paragraphs. Herein CHO cell-cultures, which are stably transfected by known techniques with Tie2 using DHFR deficiency as selection marker, are stimulated by angiopoietin-2. The specific autophosphorylation of Tie2 receptors is quantified with a sandwich-ELISA using anti-Tie2 antibodies for catch and anti-phosphotyrosine antibodies coupled to HRP for detection.
• 96 well tissue culture plate, sterile, Greiner • 96 well FluoroNunc plate MaxiSorp Surface C, Nunc • 96 well plate polypropylene for compound dilution in DMSO • CHO Tie2/DHFR (transfected cells) • PBS−; PBS++, DMSO • MEM alpha Medium with Glutamax-I without Ribonucleosides and Deoxyribonucleosides (Gibco #32561-029) • with 10% FCS after dialysis! and 1% PenStrep • Lysis buffer: 1 Tablet “Complete” protease inhibitor • 1 cap Vanadate (1 mL>40 mg/mL; working solution 2 mM) • ad 50 mL with Duschl-Puffer • pH 7.6 • Anti-Tie2-antibody 1:425 in Coating Buffer pH 9.6 • Stock solution: 1.275 mg/mL>working.: 3 μg/mL • PBST: 2 bottles PBS (10×)+10 ml Tween, fill up with VE-water • RotiBlock 1:10 in VE-water • Anti-Phosphotyrosine HRP-Conjugated 1:10000 in 3% TopBlock • 3% TopBlock in PBST • BM Chemiluminescence ELISA Substrate (POD) • solution B 1:100 solution A • SF9 cell culture medium • Ang2-Fc in SF9 cell culture medium
• Dispense 5×10^4 cells/well/98 μL in 96 well tissue culture plate • Incubate at 37° C./5% CO2 • After 24 h add compounds according to desired concentrations • Add also to control and stimulated values without compounds 2 μL DMSO • And mix for a few min at room temperature • Add 100 μL Ang2-Fc to all wells except control, which receives insect medium • Incubate 20 min at 37° C. • Wash 3× with PBS++ • Add 100 μl Lysis buffer/well and shake a couple of min at room temperature • Store lysates at […] before utilizing for the ELISA
• Coat 96 well FluoroNunc Plate MaxiSorp Surface C with anti-Tie2 mAb 1:425 in Coating buffer pH 9.6; 100 μL/well overnight at 4° C. • Wash 2× with PBST • Block plates with 250 μL/well RotiBlock 1:10 in VE-water • Incubate for 2 h at room temperature or overnight at 4° C. shaking • Wash 2× in PBST • Add thawed lysates to wells and incubate overnight shaking at 4° C. • Wash 2× with PBST • Add 100 μL/well anti-Phosphotyrosine HRP-Conjugated 1:10000 in 3% TopBlock (3% TopBlock in PBST) and incubate overnight under shaking • Wash 6× with PBST • Add 100 μL/well BM Chemiluminescence ELISA Substrate (POD) solutions 1 und 2 (1:100) • Determine luminescence with the LumiCount. Assay 2: Tie-2-Kinase HTRF-Assay without Kinase Preactivation

Chain of Tie2 (Q02763 23-1124, species assumed): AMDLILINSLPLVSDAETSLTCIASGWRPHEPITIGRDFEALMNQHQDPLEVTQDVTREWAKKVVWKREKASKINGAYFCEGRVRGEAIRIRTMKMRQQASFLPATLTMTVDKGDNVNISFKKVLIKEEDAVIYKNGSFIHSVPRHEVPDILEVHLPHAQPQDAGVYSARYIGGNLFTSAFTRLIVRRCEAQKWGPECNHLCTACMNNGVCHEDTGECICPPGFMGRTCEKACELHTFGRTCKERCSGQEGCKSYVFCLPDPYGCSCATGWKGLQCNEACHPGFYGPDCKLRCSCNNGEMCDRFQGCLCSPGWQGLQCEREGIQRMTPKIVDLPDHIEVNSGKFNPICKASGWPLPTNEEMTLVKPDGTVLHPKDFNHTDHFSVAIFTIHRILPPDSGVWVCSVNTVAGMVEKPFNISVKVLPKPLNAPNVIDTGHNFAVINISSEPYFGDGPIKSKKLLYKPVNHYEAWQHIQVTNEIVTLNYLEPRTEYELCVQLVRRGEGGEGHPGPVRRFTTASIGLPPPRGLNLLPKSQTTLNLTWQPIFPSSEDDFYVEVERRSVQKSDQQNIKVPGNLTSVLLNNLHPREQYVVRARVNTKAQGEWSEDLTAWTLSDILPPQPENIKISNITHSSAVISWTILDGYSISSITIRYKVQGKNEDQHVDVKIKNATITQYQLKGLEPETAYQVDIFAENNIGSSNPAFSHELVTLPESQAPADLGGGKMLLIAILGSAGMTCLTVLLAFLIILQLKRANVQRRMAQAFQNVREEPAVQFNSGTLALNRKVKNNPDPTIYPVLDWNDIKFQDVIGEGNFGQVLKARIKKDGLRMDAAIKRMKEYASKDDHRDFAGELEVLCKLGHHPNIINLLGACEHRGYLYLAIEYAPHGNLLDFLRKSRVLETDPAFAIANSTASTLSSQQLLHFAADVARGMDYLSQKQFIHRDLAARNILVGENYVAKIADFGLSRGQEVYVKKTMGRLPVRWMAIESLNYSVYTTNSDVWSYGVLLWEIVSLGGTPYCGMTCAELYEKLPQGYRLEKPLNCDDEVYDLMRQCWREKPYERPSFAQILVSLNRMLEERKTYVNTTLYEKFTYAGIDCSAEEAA

| Structure (SMILES) | IC50 [µM] |
| --- | --- |
| CC(C)c1cc(NC(=O)Nc2ccc(-c3cncc4c3cnn4C)cc2F)n(-c2cccc(F)c2)n1 [Example 15.2, 1-[2-Fluoro-4-(1-methyl-1H-pyrazolo[3,4-c]pyridin-4-yl)-phenyl]-3-[2-(3-fluoro-phenyl)-5-isopropyl-2H-pyrazol-3-yl]-urea] | < 0.501 |
| COCCn1ncc2c(-c3ccc(NC(=O)Nc4cc(C(F)(F)F)ccc4F)c(F)c3)cncc21 [Example 12.5, 1-{2-Fluoro-4-[1-(2-methoxy-ethyl)-1H-pyrazolo[3,4-c]pyridin-4-yl]-phenyl}-3-(2-fluoro-5-trifluoromethyl-phenyl)-urea] | < 0.501 |
| CN1CCN(Cc2ccc(NC(=O)Nc3ccc(-c4cncc5c4cnn5CCO)cc3)cc2C(F)(F)F)CC1 [Example 8.6, 1-{4-[1-(2-Hydroxy-ethyl)-1H-pyrazolo[3,4-c]pyridin-4-yl]-phenyl}-3-[4-(4-methyl-piperazin-1-ylmethyl)-3-trifluoromethyl-phenyl]-urea] | < 0.501 |
| Cn1ncc2c(-c3ccc(NC(=O)Nc4cc(C(F)(F)F)ccn4)c(F)c3)cncc21 [Example 14.5, 1-[2-Fluoro-4-(1-methyl-1H-pyrazolo[3,4-c]pyridin-4-yl)-phenyl]-3-(4-trifluoromethyl-pyridin-2-yl)-urea] | < 0.501 |
| Cc1cc(-c2cncc3c2cnn3C)ccc1NC(=O)Nc1cccc(C(F)(F)F)c1 [Example 4.1, 1-[2-Methyl-4-(1-methyl-1H-pyrazolo[3,4-c]pyridin-4-yl)-phenyl]-3-(3-trifluoromethyl-phenyl)-urea] | < 0.501 |
| Cn1ncc2c(-c3ccc(NC(=O)Nc4cc(C(F)(F)F)ccc4Cl)cc3)cncc21 [Example 1.13, 1-(2-Chloro-5-trifluoromethyl-phenyl)-3-[4-(1-methyl-1H-pyrazolo[3,4-c]pyridin-4-yl)-phenyl]-urea] | < 0.501 |

Other lines, results leading:

| IC50 [µM] | Structure (SMILES) |
| --- | --- |
| < 0.501 | COCCn1ncc2c(-c3ccc(NC(=O)Nc4cccc(C(F)(F)F)c4)c(F)c3)cncc21 [Example 12.4, 1-{2-Fluoro-4-[1-(2-methoxy-ethyl)-1H-pyrazolo[3,4-c]pyridin-4-yl]-phenyl}-3-(3-trifluoromethyl-phenyl)-urea] |
| < 0.501 | CN(C)C1CCN(c2ccc(C(F)(F)F)cc2NC(=O)Nc2ccc(-c3cncc4c3cnn4C)cc2)C1 (centres unmarked) [Example 13.12, 1-[2-(3-Dimethylamino-pyrrolidin-1-yl)-5-trifluoromethyl-phenyl]-3-[4-(1-methyl-1H-pyrazolo[3,4-c]pyridin-4-yl)-phenyl]-urea] |
| < 0.501 | CC(C)c1cc(NC(=O)Nc2ccc(-c3cncc4c3cnn4C)cc2)n(-c2cccc(F)c2)n1 [Example 15.1, 1-[2-(3-Fluoro-phenyl)-5-isopropyl-2H-pyrazol-3-yl]-3-[4-(1-methyl-1H-pyrazolo[3,4-c]pyridin-4-yl)-phenyl]-urea] |
| < 0.501 | Cn1ncc2c(-c3ccc(NC(=O)Nc4cc(C(F)(F)F)ccn4)cc3)cncc21 [Example 1.9, 1-[4-(1-Methyl-1H-pyrazolo[3,4-c]pyridin-4-yl)-phenyl]-3-(4-trifluoromethyl-pyridin-2-yl)-urea] |
| < 0.501 | CN1CCN(Cc2ccc(NC(=O)Nc3ccc(-c4cncc5c4cnn5C)cc3F)cc2C(F)(F)F)CC1 [Example 13.6, 1-[2-Fluoro-4-(1-methyl-1H-pyrazolo[3,4-c]pyridin-4-yl)-phenyl]-3-[4-(4-methyl-piperazin-1-ylmethyl)-3-trifluoromethyl-phenyl]-urea] |
